Strand notation (5' to 3'): a small letter for the sugar, then the base; units joined by * are phosphorothioate-linked, units joined directly phosphodiester-linked; [ ] holds rarer units or linkages, { } end groups; capitals alone tell only the bases. e = 2'-O-(2-methoxyethyl) (MOE); [5mC] = 5-methylcytosine; d = 2'-deoxy (DNA)

The text below walks through data of patent US20050060764A1, “Mouse model for bone metabolism” (priority 2003, published 2005).

Assay type in all cases: cell-based
The test system of data set [1] is mouse RANKL mRNA. Nature of the data set: Antisense inhibition of mouse RANKL mRNA levels in C2C12 cells, quantitative real-time PCR (Table 2). More on the design: concentration or dose not given beside the values. The following applies: averages from three experiments. The method in brief: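 C2C12 cells seeded at ~10,000 cells/cm^2, treated with antisense oligonucleotides (all C as 5-methylcytidine) in triplicate and harvested 16-24 h later. Mouse RANKL mRNA quantified by real-time RT-PCR with a FAM/TAMRA probe, with mouse GAPDH (JOE/TAMRA probe) as reference.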

Data set [2] concerns mouse RANKL mRNA. Nature of the data set: Antisense inhibition of mouse RANKL mRNA in C2C12 cells: dose response (Table 5). The following applies: relative to untreated control. The procedure:
Cells were seeded into 24-well plates (Falcon-353047 at a density of ˜10,000 cells/cm^2 for use in antisense oligonucleotide transfection.
Cells are treated and data are obtained in triplicate. […] Cells were harvested 16-24 hours after oligonucleotide treatment.
Probes and primers to mouse RANKL were designed to hybridize to a mouse RANKL sequence, using published sequence information (GenBank accession number AF013170.1, incorporated herein as SEQ ID NO:ll). For mouse RANKL the PCR primers were: • forward primer: […] (SEQ ID NO:12) • reverse primer: […] (SEQ ID NO: 13) and • the PCR probe was: FAM-[…]-TAMRA (SEQ ID NO: 14) where FAM is the fluorescent reporter dye and TAMRA is the quencher dye. For mouse GAPDH the PCR primers were: • forward primer: […](SEQ ID NO:15) • reverse primer: […](SEQ ID NO:16) and the • PCR probe was: 5′ JOE-[…]-TAMRA 3′ (SEQ ID NO: 17) where JOE is the fluorescent reporter dye and TAMRA is the quencher dye.
In accordance with the present invention, a subset of the antisense oligonucleotides in Example 16 was further investigated in dose-response studies. The oligonucleotides used in this investigation were ISIS 180812 (SEQ ID NO: 178), ISIS 180814 (SEQ ID NO: 180), ISIS 180819 (SEQ ID NO: 185), ISIS 180828 (SEQ ID NO: 194) and the control oligonucleotide ISIS 101757 ([…], SEQ ID NO: 355). […] All cytidine residues are 5-methylcytidines.
C2C12 cells were treated with the oligonucleotides at 10, 50, 75, 100, and 150 nM as described in other examples herein. […] The results are expressed as percent inhibition relative to the untreated control. The data, shown in Table 5, are averages from two experiments and illustrate the oligonucleotides of the present invention are able to downregulate RANKL mRNA expression in a dose-dependent manner.

Data set [3] concerns RANKL mRNA. Nature of the data set: Antisense inhibition of RANKL mRNA expression followed by PTH treatment in primary mouse osteoblast cells: dose response (Table 8). The following applies: 10 nM PTH last 2 h, relative to PTH alone. The procedure: Primary mouse osteoblasts were prepared from calvaria of neonatal mice purchased from Charles River Laboratories. […] Cells were not passaged. Cells were seeded onto 6-well plates (Falcon-Primaria #353846) at a density of 50,000 cells/well for use in antisense oligonucleotide transfection.
In a further embodiment of this invention, the effect of RANKL antisense oligonucleotides and PTH treatment on the expression of RANKL was determined in primary osteoblast cells isolated from mice skull caps.
ISIS 143624 ([…], SEQ ID NO: 348) was used as a control oligonucleotide. […] All cytidine residues are 5-methylcytidines.
Primary osteoblastic cells were transfected for 24 hours with either Isis 180819 (SEQ ID NO: 185) or the control oligo ISIS 143624 (SEQ ID NO: 348) at a dose of […], 125 nM, 250 nM, or 500 nM by the methods described herein but using the transfection reagent FuGENE 6 (Roche Applied Science, Indianapolis, Ind.). During the last 2 hours of oligonucleotide transfection, the cells were treated with 10 nM PTH. The RNA was then harvested and the expression levels of […] were measured by the methods described herein. The results are expressed as percent inhibition relative to PTH treatment alone and represent the average from three experiments.

Data set [4] has as its system RANKL mRNA. The data set is described as above. The following applies: 63 nM oligonucleotide 24 h, 10 nM PTH last 2 h, relative to PTH alone.

Regarding “180819 (antisense eT*eG*e[5mC]*eA*eG*dG*dT*d[5mC]*d[5mC]*d[5mC]*dA*dG*d[5mC]*dG*d[5mC]*eA*eA*eT*eG*eT) [compound 180819]”, the “% INHIB (inhibition of mouse RANKL mRNA levels)” value in the data set on mouse RANKL mRNA [1] worked out at 66%. The “% Inhibition of RANKL mRNA” value in the data set with mouse RANKL mRNA [2] (10 nM oligonucleotide) was 41%; in the data set on mouse RANKL mRNA [2] (50 nM oligonucleotide) it was 39%; in the data set with mouse RANKL mRNA [2] (75 nM oligonucleotide), 57%; in the data set on mouse RANKL mRNA [2] (100 nM oligonucleotide), 71%; with mouse RANKL mRNA [2] (150 nM oligonucleotide), 75%. Also, the “% RANKL mRNA inhibition” value turned out to be 39% with RANKL mRNA [3] (125 nM oligonucleotide 24 h), 71% in the data set with RANKL mRNA [3] (250 nM oligonucleotide 24 h), 85% in the data set on RANKL mRNA [3] (500 nM oligonucleotide 24 h) and 19% with RANKL mRNA [4].
Consider “143624 (antisense eT*eG*e[5mC]*eT*e[5mC]*dA*dG*d[5mC]*dG*dA*dG*dT*dG*dT*dG*e[5mC]*e[5mC]*eA*eG*e[5mC]) [compound 143624]”, for which the “% RANKL mRNA inhibition” value in the data set on RANKL mRNA [3] (125 nM oligonucleotide 24 h) is 3%; with RANKL mRNA [3] (250 nM oligonucleotide 24 h), 0%; in the data set on RANKL mRNA [3] (500 nM oligonucleotide 24 h), 9%; with RANKL mRNA [4] it was 4%.
